Laboratory results from article PMC4604124, “In Vitro Characterization of the Pharmacological Properties of the Anti-Cancer Chelator, Bp4eT, and Its Phase I Metabolites” (PLoS ONE, 2015).
Several values for one entry are separate records, joined by “and”; a condition that tells them apart may be missing. Equal entries are not always repeated. Where two headings read alike, the source gives them in different places.

Tests used:
caspase 9 = assay: Caspase activity, luminescent kit, caspase 9; assay type: cell-based, human; settings: for kaspáza 9, raw signal / kaspáza 9, signal / viabilita: individual experiments by date; for kaspáza 9, raw signal, průměry / kaspáza 9, % kontroly / kaspáza 9, signal / viabilita, průměry: mean; for kaspáza 9, % kontroly / kaspáza 9, signal / viabilita / kaspáza 9, signal / viabilita, průměry: normalised to viability
Protocol: (§1) To assess the effect of the compounds on caspase activity, MCF-7 cells were incubated with 100 nM Bp4eT or its metabolites for 3, 24 or 72 h/37°C in 96-well plates, as described above. The cells were then lysed by adding 100 μL of cold lysis buffer (100 mM HEPES, 10 mM CHAPS, 10 mM D-L-dithiothreitol, pH 7.4) to 100 μL of medium in each well. Lysates were immediately frozen at -80°C. Thawed lysates were used to assess caspase activity using luminescent kits for caspases 3/7, 8 and 9 (Promega, Madison, WI, USA). The luminescence was measured using the Tecan Infinite 200M plate reader. Caspase activity in the experimental groups was corrected according to the cellular viability of each group and expressed as a percentage of activity of the untreated control (100%).

[1] = test system: HCT116 human colorectal carcinoma cells; assay: MTT cytotoxicity assay, HCT116 cells; assay type: cell-based; settings: for IC50: MTT
Protocol: (§2) For cytotoxicity experiments, cancer cells were seeded at a density of 5,000 (MCF-7), 10,000 (HL-60) or 2,000 cells/well (HCT116 and A549) in 96-well plates (TPP) for 24 h/37°C prior to the addition of examined agents. The non-cancerous cells, 3T3 and H9c2 cells, were cultured for 24 h/37°C in 96-well plates at a density of 10,000 cells/well, the medium was then changed to serum- and pyruvate-free DMEM (Sigma-Aldrich) and incubated with the cells for another 24 h/37°C. The cytotoxic effects of Bp4eT and its metabolites were studied at different concentrations after a 72 h/37°C incubation. In order to aid the dissolution of the lipophilic ligands, 0.1% dimethyl sulfoxide (v/v) (DMSO; Sigma-Aldrich) was present in the culture medium of all groups. At this concentration, DMSO had no effect on cellular proliferation or viability.
(§3) The viability of cells were determined using an MTT assay (Sigma-Aldrich) according to previously established methods. The optical density of soluble MTT was measured at λ = 570 nm, subtracting the λ = 690 nm background using a Tecan Infinite 200M plate reader (Tecan Group, Männedorf, Switzerland). The viability or proliferation of experimental groups was expressed as a percentage of the untreated controls (100%).
(§4) SigmaStat for Windows 3.5 (Systat Software, San Jose, CA, USA) statistical software package was utilized to analyze results. The data are expressed as the mean ± SD of a given number of experiments. Statistical significance was determined using a one-way ANOVA with a Bonferroni post-hoc test or Student’s t-test. The results were considered to be statistically significant when p < 0.05. The IC50 values were calculated using CalcuSyn 2.0 software (Biosoft, Cambridge, UK). Cell cycle analysis was evaluated using MultiCycle AV Software (Phoenix Flow Systems, San Diego, CA, USA).

MCF-7 cells = assay: Cell cycle analysis by flow cytometry (propidium iodide); assay type: cell-based, human; settings: 0.1 μM, 72 h, control 33%
Protocol: To examine the effect of the agents on the cell cycle, MCF-7 cells were seeded in 60 mm Petri dishes at a density of 240,000 cells/dish and incubated with Bp4eT or its metabolites for 72 h/37°C. The cells were then harvested, fixed by ethanol and stained by propidium iodide (Molecular Probes, Eugene, OR, USA) for 30 min/37°C, as described previously. Cells were analyzed using Accuri C6 flow cytometer (Becton Dickinson and Company, San Jose, CA USA). Propidium iodide was excited at λex = 488 nm and fluorescence analyzed at λem = 585 nm (FL-2) with a total of 10,000 events collected per analysis.
as §4

caspase 8 = assay: Caspase activity, luminescent kit, caspase 8; assay type: cell-based, human; settings: for kaspáza 8, raw signal / kaspáza 8, signal / viabilita: individual experiments by date; for kaspáza 8, raw signal, průměry / kaspáza 8, % kontroly / kaspáza 8, signal / viabilita, průměry: mean; for kaspáza 8, % kontroly / kaspáza 8, signal / viabilita / kaspáza 8, signal / viabilita, průměry: normalised to viability
Protocol: as §1

[2] = test system: 3T3 mouse embryo fibroblasts; assay: MTT cytotoxicity assay, 3T3 cells; assay type: cell-based; settings: for IC50: MTT
Protocol: as §2, §3, §4

[3] = MTT cytotoxicity assay, 3T3 cells; assay type: cell-based, mouse; settings: mouse, 3T3 mouse embryo fibroblasts, 3T3, 10 000 b/j; for viability at 72 h, 1 μM: koncentrace 1 μM; for viability at 72 h, 3 μM: koncentrace 3 μM; for viability at 72 h, 10 μM: koncentrace 10 μM; for viability at 72 h, 30 μM: koncentrace 30 μM; for viability at 72 h, 100 μM: koncentrace 100 μM; for viability at 72 h, 300 μM: koncentrace 300 μM; for viability at 72 h, 1000 μM: koncentrace 1000 μM
Protocol: as §2, §3, §4

[4] = individual experiments, read-out: MTT viability (0 = 100)
[5] = mean, read-out: MTT viability (0 = 100), průměr

SMILES: CCN=CNN=C(c1ccccc1)c1ccccn1 [Bp4eA, N ^3-ethyl-N ^1-[phenyl(pyridin-2-yl)methylene]formamidrazone]
- kaspáza 9, raw signal (caspase 9; 3 hodiny): 5948 and 2664.5 and 3083.5 and 2163.5
- kaspáza 9, raw signal, průměry (caspase 9; 3 hodiny): 3464.88
- kaspáza 9, % kontroly (caspase 9; 3 hodiny): 101.76 % kontroly
- kaspáza 9, signal / viabilita (caspase 9; 3 hodiny): 61.4437 and 27.5247 and 31.853 and 22.3493
- kaspáza 9, signal / viabilita, průměry (caspase 9; 3 hodiny): 35.7927
- kaspáza 9, raw signal (caspase 9; 24 hodin): 4444 and 2960 and 4885.5 and 3130
- kaspáza 9, raw signal, průměry (caspase 9; 24 hodin): 3854.88
- kaspáza 9, % kontroly (caspase 9; 24 hodin): 99.64 % kontroly
- kaspáza 9, signal / viabilita (caspase 9; 24 hodin): 46.4885 and 30.9645 and 51.1071 and 32.7428
- kaspáza 9, signal / viabilita, průměry (caspase 9; 24 hodin): 40.3257
- kaspáza 9, raw signal (caspase 9; 72 hodin): 22564 and 18032 and 23775.5 and 21453
- kaspáza 9, raw signal, průměry (caspase 9; 72 hodin): 21456.1
- kaspáza 9, % kontroly (caspase 9; 72 hodin): 106.51 % kontroly
- kaspáza 9, signal / viabilita (caspase 9; 72 hodin): 242.519 and 193.809 and 255.541 and 230.578
- kaspáza 9, signal / viabilita, průměry (caspase 9; 72 hodin): 230.612
- Therapeutic index, IC50 non-cancerous cells / IC50 neoplastic cells ([1]; 3T3/HCT116): 9.2
- Therapeutic index, IC50 non-cancerous cells / IC50 neoplastic cells ([1]; H9c2/HCT116): 3.7
- MTT, relative to control (0 = 100) ([1]; HCT116, 2 000 b/j, 1 μM, průměr (mean), sheet Bp4eA): 97.58
- MTT, relative to control (0 = 100) ([1]; HCT116, 2 000 b/j, 1 μM, single experiment (date), sheet Bp4eA): 99.1509 and 100.455 and 96.4816 and 94.6996 and 96.3825 and 98.3223
- MTT, relative to control (0 = 100) ([1]; HCT116, 2 000 b/j, 3 μM, průměr (mean), sheet Bp4eA): 97.04
- MTT, relative to control (0 = 100) ([1]; HCT116, 2 000 b/j, 3 μM, single experiment (date), sheet Bp4eA): 97.9686 and 98.7085 and 92.1521 and 93.3267 and 100.675 and 99.4316
- MTT, relative to control (0 = 100) ([1]; HCT116, 2 000 b/j, 10 μM, průměr (mean), sheet Bp4eA): 94.04
- MTT, relative to control (0 = 100) ([1]; HCT116, 2 000 b/j, 10 μM, single experiment (date), sheet Bp4eA): 94.463 and 96.9011 and 92.7169 and 93.3863 and 93.3144 and 93.4876
- MTT, relative to control (0 = 100) ([1]; HCT116, 2 000 b/j, 30 μM, průměr (mean), sheet Bp4eA): 89.95
- MTT, relative to control (0 = 100) ([1]; HCT116, 2 000 b/j, 30 μM, single experiment (date), sheet Bp4eA): 90.1675 and 87.4242 and 84.0067 and 87.0754 and 95.7934 and 95.2315
- MTT, relative to control (0 = 100) ([1]; HCT116, 2 000 b/j, 100 μM, průměr (mean), sheet Bp4eA): 58.40
- MTT, relative to control (0 = 100) ([1]; HCT116, 2 000 b/j, 100 μM, single experiment (date), sheet Bp4eA): 42.8559 and 58.6495 and 64.6288 and 67.4584
- MTT, relative to control (0 = 100) ([1]; HCT116, 2 000 b/j, 300 μM, průměr (mean), sheet Bp4eA): 9.79
- MTT, relative to control (0 = 100) ([1]; HCT116, 2 000 b/j, 1000 μM, průměr (mean), sheet Bp4eA): 2.29
- IC50 ([1]; HCT116, 2 000 b/j, single experiment (date), sheet Bp4eA): 115 µM and 125 µM (2×)
- IC50 ([1]; Homo sapiens, HCT-116, 72 h, HCT116, 72 h/37°C, mean ± SD, n ≥ 4): 112 ± 20.9 µM
- IC50 ([1]; Homo sapiens, HCT-116, HCT116, 2 000 b/j, průměr (mean), sheet Bp4eA): 112 µM
- IC50 ([1]; Homo sapiens, HCT-116, HCT116, 2 000 b/j, single experiment (date), sheet Bp4eA): 80.9 µM
- Percentage of cells in the G2/M phase (MCF-7 cells): slight, but significant (p < 0.01–0.05) decrease
- kaspáza 8, raw signal (caspase 8; 3 hodiny): 2039 and 1218.5 and 1153 and 868.5
- kaspáza 8, raw signal, průměry (caspase 8; 3 hodiny): 1319.75
- kaspáza 8, % kontroly (caspase 8; 3 hodiny): 98.01 % kontroly
- kaspáza 8, signal / viabilita (caspase 8; 3 hodiny): 21.0632 and 12.5873 and 11.9107 and 8.972
- kaspáza 8, signal / viabilita, průměry (caspase 8; 3 hodiny): 13.6332
- kaspáza 8, raw signal (caspase 8; 24 hodin): 1556 and 1108.5 and 1675.5 and 1199
- kaspáza 8, raw signal, průměry (caspase 8; 24 hodin): 1384.75
- kaspáza 8, % kontroly (caspase 8; 24 hodin): 91.04 % kontroly
- kaspáza 8, signal / viabilita (caspase 8; 24 hodin): 16.2773 and 11.596 and 17.5273 and 12.5427
- kaspáza 8, signal / viabilita, průměry (caspase 8; 24 hodin): 14.4858
- kaspáza 8, raw signal (caspase 8; 72 hodin): 6752 and 5806 and 7204 and 6996
- kaspáza 8, raw signal, průměry (caspase 8; 72 hodin): 6689.5
- kaspáza 8, % kontroly (caspase 8; 72 hodin): 103.53 % kontroly
- kaspáza 8, signal / viabilita (caspase 8; 72 hodin): 72.5709 and 62.4033 and 77.4291 and 75.1935
- kaspáza 8, signal / viabilita, průměry (caspase 8; 72 hodin): 71.8992
- IC50 ([2]; 3T3, 10 000 b/j, individual experiments, read-out: IC50): 1010 µM and 1150 µM
- MTT viability (0 = 100) ([2]; 3T3, 10 000 b/j, koncentrace 1 μM, individual experiments): 95.1233 and 93.3461 and 101.857
- MTT viability (0 = 100) ([2]; 3T3, 10 000 b/j, koncentrace 3 μM, individual experiments): 92.5164 and 97.328 and 96.9903
- MTT viability (0 = 100) ([2]; 3T3, 10 000 b/j, koncentrace 10 μM, individual experiments): 86.2678 and 91.552 and 97.4344
- MTT viability (0 = 100) ([2]; 3T3, 10 000 b/j, koncentrace 30 μM, individual experiments): 90.9815 and 83.2122 and 96.551
- MTT viability (0 = 100) ([2]; 3T3, 10 000 b/j, koncentrace 100 μM, individual experiments): 87.8661 and 89.8957 and 82.8198
- MTT viability (0 = 100) ([2]; 3T3, 10 000 b/j, koncentrace 300 μM, individual experiments): 76.7642 and 78.9793 and 76.2498
- MTT viability (0 = 100) ([2]; 3T3, 10 000 b/j, koncentrace 1000 μM, individual experiments): 48.7008 and 53.1589 and 49.6824
- IC50 ([2]; Mus musculus, Fibroblast, 3T3, 10 000 b/j, individual experiments, read-out: IC50): 748 µM
- IC50 ([2]; Mus musculus, Fibroblast, 3T3, 10 000 b/j, mean, read-out: IC50, průměr): 1030 µM
- IC50 ([2]; Mus musculus, Fibroblast, 72 h, 3T3, 72 h/37°C, mean ± SD, n ≥ 4, read-out: IC50): 1030 ± 204 µM
- viability at 72 h, 1 μM [3, 4]: 110%
- viability at 72 h, 1 μM [3, 5]: 100%
- viability at 72 h, 3 μM [3, 4]: 106%
- viability at 72 h, 3 μM [3, 5]: 98.2%
- viability at 72 h, 10 μM [3, 4]: 103%
- viability at 72 h, 10 μM [3, 5]: 94.7%
- viability at 72 h, 30 μM [3, 4]: 101%
- viability at 72 h, 30 μM [3, 5]: 92.8%
- viability at 72 h, 100 μM [3, 4]: 88.8%
- viability at 72 h, 100 μM [3, 5]: 87.3%
- viability at 72 h, 300 μM [3, 4]: 80.5%
- viability at 72 h, 300 μM [3, 5]: 78.1%
- viability at 72 h, 1000 μM [3, 4]: 37.5%
- viability at 72 h, 1000 μM [3, 5]: 47.2%
